Data from patent US20150209379A1, “TREATMENT OF PROSTATE CANCER AND HEMATOLOGIC NEOPLASMS” (THOMAS JEFFERSON UNIVERSITY, priority 2012, published 2015).

Target: T1, Stat5a (Homo sapiens, UniProt P42229)
T1 sequence (P42229 1-794): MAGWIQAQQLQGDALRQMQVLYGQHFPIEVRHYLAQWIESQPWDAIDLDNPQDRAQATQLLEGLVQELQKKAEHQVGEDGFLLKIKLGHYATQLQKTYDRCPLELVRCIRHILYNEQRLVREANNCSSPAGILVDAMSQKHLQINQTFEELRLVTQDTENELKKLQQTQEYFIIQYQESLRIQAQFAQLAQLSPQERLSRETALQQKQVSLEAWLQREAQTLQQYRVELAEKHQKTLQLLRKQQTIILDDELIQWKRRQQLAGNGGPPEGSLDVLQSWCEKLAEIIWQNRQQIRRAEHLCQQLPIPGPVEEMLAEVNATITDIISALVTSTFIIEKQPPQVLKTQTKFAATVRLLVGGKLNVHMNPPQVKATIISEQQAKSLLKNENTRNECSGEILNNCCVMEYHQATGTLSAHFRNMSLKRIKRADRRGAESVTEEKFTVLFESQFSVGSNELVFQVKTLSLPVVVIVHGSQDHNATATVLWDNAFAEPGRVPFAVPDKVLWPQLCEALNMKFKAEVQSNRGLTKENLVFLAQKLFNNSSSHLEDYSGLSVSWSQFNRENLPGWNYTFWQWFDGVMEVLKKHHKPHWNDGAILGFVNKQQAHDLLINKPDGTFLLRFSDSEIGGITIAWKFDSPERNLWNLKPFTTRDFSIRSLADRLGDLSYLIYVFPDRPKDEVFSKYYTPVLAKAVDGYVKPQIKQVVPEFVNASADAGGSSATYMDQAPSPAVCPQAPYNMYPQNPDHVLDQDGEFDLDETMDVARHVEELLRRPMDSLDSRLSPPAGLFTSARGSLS
Assay: Stat5a dimerization (FLAG-/MYC-tagged Stat5a co-immunoprecipitation) in PC-3 cells
Assay type: cell-based
Parameters: expressed in transfected cells; host or cells: PC-3 human prostate cancer cells
Details: 2 hours pretreatment, then hPrl 10 nM 30 minutes
Description: (§1) FLAG-tagged Stat5a and MYC-tagged Stat5a were generated by standard molecular biology cloning techniques. Plasmid pCMV3-FLAG-Stat5a, pCMV3-MYC-Stat5a and pPr1R were co-transfected using FuGENE6 (Roche) into PC-3 cells (2 μg of each plasmid per 1×10^7 cells). The cells were starved for 20 hours, pretreated with test compound for 2 hours, then stimulated with hPrl (10 nM) in RPMI 1640 without serum for 30 minutes. The cell lysates were immunoprecipitated with 25 μl anti-FLAG M2 […] affinity gel (2 μg/ml, Sigma), anti-MYC pAb (1 μg/ml, Upstate) or normal rabbit serum (NRS). The primary antibodies were used in the immunoblottings at the following concentrations: anti-FLAG pAb (1:1000; Stratagene), anti-MYC mAb (1:1000; Sigma), anti-Stat5a/b mAb (1:250) (Transduction Laboratories) detected by horseradish peroxidase-conjugated secondary antibodies. The results are shown in FIG. 3A for Compound 1 and FIG. 3B for Compound 2.
Lanes 1, 2, 4, 6 and 8 represent cells stimulated with human prolactin (Prl) for 30 minutes which induces dimerization of Stat5. Two hours prior to Prl-stimulation, the cells had been treated with DMSO (lanes 1-4), the control compound C5 (lanes 7 and 8) and either Compound 1 (lanes 5 and 6 in FIG. 3A) or Compound 2 (lanes 5 and 6 in FIG. 3B). […] It should be noted the drug effect in this study was not due to cell apoptosis induction, as the treatment time was only 2 hours. Treatment of at least 48 hours is required for the compound to induce prostate cancer cell apoptosis.
as §1, with “and pPrlR” for “and pPr1R”, “hours, pre-treated” for “hours, pretreated”, “with NBPP” for “with test compound”, “2 h,” for “2 hours,”, “antibodies.” for “antibodies. The results are shown in FIG. 3A for Compound 1 and FIG. 3B for Compound 2.”
Lanes 1, 2, 4, 6 and 8 represent cells stimulated with human prolactin (Prl) for 30 minutes which induces dimerization of Stat5. Two hours prior to Prl-stimulation, the cells had been treated with DMSO (lanes 1-4), the control compound C5 (lanes 5 and 6) or NBPP (lanes 7 and 8) to test whether the Stat5a/b-inhibitor compound, NBPP, would be able to inhibit dimerization of StatS. […] It should be noted the drug effect in this study was not due to cell apoptosis induction, as the treatment time was only 2 hours. Treatment of at least 48 hours is required for the compound to induce prostate cancer cell apoptosis.
FLAG-tagged Stat5a and MYC-tagged Stat5a were generated by standard molecular biology cloning techniques.as follows. […] The primary antibodies were used in the immunoblottings at the following concentrations: anti-FLAG pAb (1:1000; Stratagene), anti-MYC mAb (1:1000; Sigma), anti-Stat5a/b mAb (1:250) (Transduction Laboratories) detected by horseradish peroxidase-conjugated secondary antibodies. […]

Nc1nc(SCc2cccnc2)[nH]c(=O)c1NC(=O)c1ccco1 [Compound C5, reference compound]
effect on Stat5a dimerization: did not inhibit dimerization of Stat5a
